Values after ≈ are worked out from the molar mass of the structure shown.
How the values were obtained:
[1] = tested on: P. acnes (ATCC 6919); assay: Minimal inhibitory concentration (MIC) against P. acnes; assay type: cell-based, Propionibacterium acnes; conditions: Cutibacterium acnes, ATCC6919, 72 h, P. acnes ATCC 6919, 10^6 CFU/mL, read-out: MIC
Procedure: To determine minimal inhibitory concentration (MIC), reagents were dissolved in vehicle (5% v/v) and then added to bacteria suspension. P. acnes (ATCC® 6919TM) at 10^6 CFU/mL was incubated with test materials at the concentrations of two-fold serial dilution (0.25-500 μg/mL) and incubated for 72 hours (P. acnes).

[2] = tested on: P. acnes (ATCC 6919); assay: Minimal bactericidal concentration (MBC) against P. acnes; assay type: cell-based, Propionibacterium acnes; conditions: Cutibacterium acnes, ATCC6919; P. acnes 10^7 CFU/mL, in PBS, anaerobic conditions

MIC [1] [µg/mL]	SMILES	MBC [2] [µg/mL]
> 125	CC(C)=CCC/C(C)=C/CC/C(C)=C/CSCC(NC(=O)N1CCCC1C(=O)O)C(=O)O (stereo not drawn) [AD]	
> 125	CC(C)=CCC/C(C)=C/CC/C(C)=C/CSCC(NC(=O)N(CC(=O)O)CC(=O)O)C(=O)O (stereo not drawn) [AF]	
> 125	CC(C)=CCC/C(C)=C/CC/C(C)=C/CSCC(NC(=O)COCC(=O)O)C(=O)O (stereo not drawn) [AQ]	
> 125	C/C(=C\CSCC(NC(=O)N1CCCCC1C(=O)O)C(=O)O)CCCC(C)CCCC(C)CCCC(C)C (stereo not drawn) [AW]	
> 125	CSCC(NC(=O)N(CC(=O)O)CC(=O)O)C(=O)O (stereo not drawn) [AX]	
> 125	O=C(O)CN(CC(=O)O)C(=O)NC12CC3CC(CC(C3)C1)C2 [AY]	
63 (≈ 120 µM)	C/C(=C\CSC[C@H](NC(=O)N1CCC1C(=O)O)C(=O)O)CCCC(C)CCCC(C)CCCC(C)C (stereo partly drawn) [AZ]	
> 125	C/C(=C\CSc1ccc(C(=O)O)cn1)CCCC(C)CCCC(C)CCCC(C)C (stereo not drawn) [BA]	
31 (≈ 49 µM)	C/C(=C\CSC[C@H](NC(=O)Nc1ncc(C(=O)O)c(C(F)(F)F)n1)C(=O)O)CCCC(C)CCCC(C)CCCC(C)C (stereo partly drawn) [BB]	
12 (≈ 21.6 µM)	C/C(=C\CSCC(NC(=O)N1CC(O)CC1C(=O)O)C(=O)O)CCCC(C)CCCC(C)CCCC(C)C (stereo not drawn) [BC]	
> 125	C/C(=C\CSCC(NC(=O)N1CCCCC1)C(=O)O)CCCC(C)CCCC(C)CCCC(C)C (stereo not drawn) [BD]	
23 (≈ 41.5 µM)	C/C(=C\CSCC(NC(=O)N1CCCC(C(=O)O)C1)C(=O)O)CCCC(C)CCCC(C)CCCC(C)C (stereo not drawn) [BE]	
> 125	C/C(=C\CSCC(Nc1ncccn1)C(=O)O)CCCC(C)CCCC(C)CCCC(C)C (stereo not drawn) [BF]	
42 (≈ 80.5 µM)	C/C(=C\CSCC(Nc1nccc(C(=O)O)n1)C(=O)O)CCCC(C)CCCC(C)CCCC(C)C (stereo not drawn) [BG]	
4 (≈ 7.67 µM)	C/C(=C\CSCC(Nc1ncc(C(=O)O)cn1)C(=O)O)CCCC(C)CCCC(C)CCCC(C)C (stereo not drawn) [BH]	16 (≈ 30.7 µM)
23 (≈ 42.7 µM)	C/C(=C\CSC[C@H](NC(=O)N(CC#N)CC(N)=O)C(=O)O)CCCC(C)CCCC(C)CCCC(C)C (stereo partly drawn) [BJ]	
31 (≈ 59.4 µM)	C/C(=C\CSC[C@H](Nc1cnc(C(=O)O)cn1)C(=O)O)CCCC(C)CCCC(C)CCCC(C)C (stereo partly drawn) [BK]	
7 (≈ 13.1 µM)	C/C(=C\CSC[C@H](Nc1ncc(C(=O)O)c(C)n1)C(=O)O)CCCC(C)CCCC(C)CCCC(C)C (stereo partly drawn) [BL]	> 62
6 (≈ 10.6 µM)	C/C(=C\CSCC(Nc1ccnc(N(C)CC(=O)O)n1)C(=O)O)CCCC(C)CCCC(C)CCCC(C)C (stereo not drawn) [BM]	> 62
8 (≈ 14.2 µM)	C/C(=C\CSCC(Nc1nccc(N(C)CC(=O)O)n1)C(=O)O)CCCC(C)CCCC(C)CCCC(C)C (stereo not drawn) [BN]	31 (≈ 54.9 µM)
